These results are taken from ChEMBL document CHEMBL1914405, “Discovery of novel spirocyclic inhibitors of fatty acid amide hydrolase (FAAH). Part 1: identification of 7-azaspiro[3.5]nonane and 1-oxa-8-azaspiro[4.5]decane as lead scaffolds” (Bioorg Med Chem Lett, 2011).

For data set [1], the target named is T1, Fatty-acid amide hydrolase 1 (Homo sapiens) (UniProt O00519).
T1 sequence (whole entry): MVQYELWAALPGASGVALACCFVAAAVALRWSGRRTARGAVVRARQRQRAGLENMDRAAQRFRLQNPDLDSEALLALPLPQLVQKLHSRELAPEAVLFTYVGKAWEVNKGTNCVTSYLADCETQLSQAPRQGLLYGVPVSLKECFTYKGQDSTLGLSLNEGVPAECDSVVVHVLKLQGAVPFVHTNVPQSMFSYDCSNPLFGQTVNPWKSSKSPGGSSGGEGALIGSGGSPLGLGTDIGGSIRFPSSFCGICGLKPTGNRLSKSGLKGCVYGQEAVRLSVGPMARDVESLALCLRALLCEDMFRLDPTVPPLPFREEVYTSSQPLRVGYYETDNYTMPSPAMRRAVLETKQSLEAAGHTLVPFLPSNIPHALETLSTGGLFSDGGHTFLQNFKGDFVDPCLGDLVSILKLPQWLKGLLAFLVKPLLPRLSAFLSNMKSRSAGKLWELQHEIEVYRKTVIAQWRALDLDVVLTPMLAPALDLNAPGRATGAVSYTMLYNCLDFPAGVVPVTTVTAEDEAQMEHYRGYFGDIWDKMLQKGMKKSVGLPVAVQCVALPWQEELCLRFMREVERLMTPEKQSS
Nature of the data set: Ratio of Kinact to Ki for human FAAH by enzyme coupled assay.

For data set [2], the target named is Voltage-gated inwardly rectifying potassium channel KCNH2 (Homo sapiens, UniProt Q12809). Nature of the data set: Inhibition of human ERG.
The test system of a further data set is Rattus norvegicus. Nature of the data set: Analgesic activity against complete Freund's adjuvant-induced pain in rat at 25 mg/kg, ip. In kind it is functional, organism-based. On the set-up: dose 25 mg/kg.

Calls of active or inactive are those of the source. No cut-off for these calls is given here.

Chain of Voltage-gated inwardly rectifying potassium channel KCNH2 (Q12809 whole entry): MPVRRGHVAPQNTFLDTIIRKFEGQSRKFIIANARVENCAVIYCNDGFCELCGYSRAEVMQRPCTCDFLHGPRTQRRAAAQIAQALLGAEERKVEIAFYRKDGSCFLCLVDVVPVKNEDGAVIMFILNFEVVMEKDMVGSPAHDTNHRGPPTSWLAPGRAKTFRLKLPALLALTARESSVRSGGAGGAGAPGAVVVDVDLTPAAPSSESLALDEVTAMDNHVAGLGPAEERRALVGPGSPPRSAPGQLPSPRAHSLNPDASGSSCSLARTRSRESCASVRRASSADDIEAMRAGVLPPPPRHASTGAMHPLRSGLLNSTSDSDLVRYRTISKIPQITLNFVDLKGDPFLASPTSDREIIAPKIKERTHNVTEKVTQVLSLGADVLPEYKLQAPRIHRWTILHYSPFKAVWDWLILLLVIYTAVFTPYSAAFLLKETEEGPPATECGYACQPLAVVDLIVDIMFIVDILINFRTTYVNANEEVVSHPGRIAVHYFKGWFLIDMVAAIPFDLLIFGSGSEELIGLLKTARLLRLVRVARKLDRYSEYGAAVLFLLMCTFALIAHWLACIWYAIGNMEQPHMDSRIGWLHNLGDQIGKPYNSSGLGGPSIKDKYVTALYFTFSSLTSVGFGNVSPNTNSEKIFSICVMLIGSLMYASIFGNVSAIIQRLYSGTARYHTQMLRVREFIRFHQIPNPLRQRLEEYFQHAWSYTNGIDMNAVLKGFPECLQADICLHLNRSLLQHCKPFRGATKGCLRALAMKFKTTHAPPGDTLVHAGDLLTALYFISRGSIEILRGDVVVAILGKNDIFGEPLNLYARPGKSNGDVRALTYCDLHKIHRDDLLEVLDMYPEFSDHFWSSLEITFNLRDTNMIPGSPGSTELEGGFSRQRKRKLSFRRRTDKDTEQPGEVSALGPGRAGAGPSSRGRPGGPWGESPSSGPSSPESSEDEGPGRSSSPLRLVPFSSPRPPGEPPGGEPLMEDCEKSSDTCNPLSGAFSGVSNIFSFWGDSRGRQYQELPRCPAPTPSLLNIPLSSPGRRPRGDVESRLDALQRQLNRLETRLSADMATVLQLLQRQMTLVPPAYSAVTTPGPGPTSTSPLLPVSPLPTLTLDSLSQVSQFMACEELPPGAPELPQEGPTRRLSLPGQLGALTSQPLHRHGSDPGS

As for `O=C(Nc1cccnn1)N1CCC2(CC1)CC(Cc1cccc(Oc3ccc(C(F)(F)F)cn3)c1)C2`, the Ratio in data set [1] was determined as 272 M⁻¹ s⁻¹.

As for `O=C(Nc1cccnn1)N1CCC2(CC1)C[C@H](c1cccc(Oc3ccc(C(F)(F)F)cn3)c1)CO2`, the “inhibition (INH)” value in data set [2] is “Active”. Further, the Ratio in data set [1] was determined as 3040 M⁻¹ s⁻¹.

Take `O=C(Nc1cccnn1)N1CCC2(CC1)CC(CCc1cccc(Oc3ccc(C(F)(F)F)cn3)c1)C2`: the Ratio in data set [1] turned out to be 344 M⁻¹ s⁻¹.

Take `O=C(Nc1cccnn1)N1CCC2(CCC(c3cccc(Oc4ccc(C(F)(F)F)cn4)c3)C2)CC1` (stereo not drawn): the Ratio in data set [1] came out at 307 M⁻¹ s⁻¹.

Regarding `O=C(Nc1cccnc1)N1CCC2(CC1)CC(c1cccc(Oc3ccc(C(F)(F)F)cn3)c1)C2`, in data set [1], the Ratio was 914 M⁻¹ s⁻¹.

For the compound `O=C(Nc1cccnn1)N1CCC2(CC1)CN(c1cccc(Oc3ccc(C(F)(F)F)cn3)c1)C2`, the Ratio in data set [1] came to 18.3 M⁻¹ s⁻¹.

With `O=C(Nc1cccnn1)N1CCC2(CC1)CC(c1cccc(Oc3ccc(C(F)(F)F)cn3)c1)CO2` (racemic), the Ratio in data set [1] was 3130 M⁻¹ s⁻¹.

Regarding `O=C(Nc1cccnc1)N1CCC2(CC1)CC(c1cccc(Oc3ccc(C(F)(F)F)cn3)c1)CO2` (stereo not drawn), the Ratio in data set [1] is 2080 M⁻¹ s⁻¹.

Turning to `Cc1noc(NC(=O)N2CCC3(CC2)CC(c2cccc(Oc4ccc(C(F)(F)F)cn4)c2)C3)c1C`, the “inhibition (INH)” value in data set [2] was “Active”. Moreover, the Ratio in data set [1] amounted to 1760 M⁻¹ s⁻¹. Also, the result in the data set on Rattus norvegicus was Active.

Regarding `O=C(Nc1cccnn1)N1CCC2(CC1)CC(c1cccc(Oc3ccc(C(F)(F)F)cn3)c1)C2`, in data set [2], the “inhibition (INH)” value was “Active”. For the same compound, in data set [1], the Ratio amounted to 1570 M⁻¹ s⁻¹.

For `O=C(Nc1cccnc1)N1CCC2(CC1)CC(Cc1cccc(Oc3ccc(C(F)(F)F)cn3)c1)CO2` (stereo not drawn), the Ratio in data set [1] amounted to 846 M⁻¹ s⁻¹.

In the case of `Cc1noc(NC(=O)N2CCC3(CC2)CC(c2cccc(Oc4ccc(C(F)(F)F)cn4)c2)CO3)c1C` (stereo not drawn), in data set [1], the Ratio is 515 M⁻¹ s⁻¹.

Regarding `O=C(Nc1cccnn1)N1CCC2(CCC(c3cccc(Oc4ccc(C(F)(F)F)cn4)c3)O2)CC1` (stereo not drawn), the Ratio in data set [1] stood at 229 M⁻¹ s⁻¹.

Consider `O=C(Nc1cccnn1)N1CCC2(CC1)C[C@@H](c1cccc(Oc3ccc(C(F)(F)F)cn3)c1)CO2`, for which the Ratio in data set [1] was 1340 M⁻¹ s⁻¹.
